# Literature values as cited in article PMC6748410, “A phase 2 study of an oral mTORC1/mTORC2 kinase inhibitor (CC-223) for non-pancreatic neuroendocrine tumors with or without carcinoid symptoms” (PLoS ONE, 2019).
# Tested on: NET arising from the pancreas, lung, or GI tract
# Design: method as in PMID 26703889, PMID 21306238
# Conditions: cited from earlier work
smiles,measurement,value
CO[C@H]1C[C@@H]2CC[C@@H](C)[C@@](O)(O2)C(=O)C(=O)N2CCCC[C@H]2C(=O)O[C@H]([C@H](C)C[C@@H]2CC[C@@H](OCCO)[C@H](OC)C2)CC(=O)[C@H](C)/C=C(\C)[C@@H](O)[C@@H](OC)C(=O)[C@H](C)C[C@H](C)/C=C/C=C/C=C/1C [everolimus],Median progression-free survival (PFS),11.0 months
